In patent US11384067B2, “Pyrazole n-linked carbamoyl cyclohexyl acids as LPA antagonists” (BRISTOL-MYERS SQUIBB COMPANY, priority 2017, dated 2022):

Target: T1, human LPA1 (Homo sapiens, UniProt Q92633)
T1 construct: expressed in transfected cells; host or cells: Chinese hamster ovary (CHO) cells
Assay: LPA1 functional antagonist assay (LPA-induced calcium flux)
Format: cell-based
Conditions: CHO cells overexpressing human LPA1, 10 nM LPA, read-out: hLPA1 IC50
Experimental: The effectiveness of compounds of the present invention as LPA1 inhibitors can be determined in an LPA1 functional antagonist assay as follows:
The cells were then equilibrated to room temperature for 30 minutes before the assay. […] IC50 values were determined by fitting data to a 4-parameter logistic equation (GraphPad Prism, San Diego Calif.).

T1 sequence (Q92633 whole entry): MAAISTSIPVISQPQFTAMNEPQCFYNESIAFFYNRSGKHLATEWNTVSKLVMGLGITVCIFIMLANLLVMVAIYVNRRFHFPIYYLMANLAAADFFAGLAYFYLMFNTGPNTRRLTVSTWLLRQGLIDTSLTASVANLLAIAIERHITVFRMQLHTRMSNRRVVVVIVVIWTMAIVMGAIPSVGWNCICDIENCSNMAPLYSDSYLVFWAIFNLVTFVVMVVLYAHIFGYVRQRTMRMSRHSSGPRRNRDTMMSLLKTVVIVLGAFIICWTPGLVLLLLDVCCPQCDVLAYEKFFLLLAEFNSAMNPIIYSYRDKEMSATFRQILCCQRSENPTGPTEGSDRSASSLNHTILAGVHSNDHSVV

| IC50 [µM] | SMILES |
| --- | --- |
| 0.012 | Cc1nc(-c2cnn(C)c2CNC(=O)OCc2cccc(F)c2)ccc1O[C@H]1CCC[C@H](C(=O)O)C1 [Example 4, (1S,3S)-3-((6-(5-(((((3-fluorobenzyl)oxy)carbonyl)amino)methyl)-1-methyl-1H-pyrazol-4-yl)-2-methyl-pyridin-3-yl)oxy)cyclohexane-1-carboxylic acid] |
| 0.011 | Cc1nc(-c2cnn(C)c2CNC(=O)O[C@H](C)c2ccccc2)ccc1O[C@H]1CCC[C@H](C(=O)O)C1 [Example 5, (1S,3S)-3-((2-methyl-6-(1-methyl-5-(((((R)-1-phenylethoxy)carbonyl)amino)methyl)-1H-pyrazol-4-yl)pyridin-3-yl)oxy)cyclohexane-1-carboxylic acid] |
| 0.007 | Cc1nc(-c2cnn(C)c2CNC(=O)OCc2cc(F)cc(F)c2)ccc1O[C@H]1CCC[C@H](C(=O)O)C1 [Example 6, (1S,3S)-3-((6-(5-(((((3,5-difluoro-benzyl)oxy)carbonyl)amino)methyl)-1-methyl-1H-pyrazol-4-yl)-2-methyl-pyridin-3-yl)oxy)cyclohexane-1-carboxylic acid] |
| 0.28 | Cc1cccc(COC(=O)NCc2c(-c3ccc(O[C@H]4CCC[C@H](C(=O)O)C4)cn3)cnn2C)c1 [Example 7, (1S,3S)-3-((6-(1-methyl-5-(((((3-methylbenzyl)oxy)carbonyl)amino)methyl)-1H-pyrazol-4-yl)pyridin-3-yl)oxy)cyclohexane-1-carboxylic acid] |
| 0.111 | Cn1ncc(-c2ccc(O[C@H]3CCC[C@H](C(=O)O)C3)cn2)c1CNC(=O)OCc1cc(F)cc(F)c1 [Example 8, (1S,3S)-3-((6-(5-(((((3,5-difluoro-benzyl)oxy)carbonyl)amino)methyl)-1-methyl-1H-pyrazol-4-yl)pyridin-3-yl)oxy)cyclohexane-1-carboxylic acid] |
| 0.071 | Cn1ncc(-c2ccc(O[C@H]3CCC[C@H](C(=O)O)C3)cn2)c1CNC(=O)OCc1cc(F)ccc1F [Example 9, (1S,3S)-3-((6-(5-(((((2,5-difluoro-benzyl)oxy)carbonyl)amino)methyl)-1-methyl-1H-pyrazol-4-yl)pyridin-3-yl)oxy)cyclohexane-1-carboxylic acid] |
| 1.66 | CN(Cc1c(-c2ccc(O[C@H]3CCC[C@H](C(=O)O)C3)cn2)cnn1C)C(=O)OCc1cc(F)ccc1F [Example 10, (1S,3S)-3-((6-(5-(((((2,5-difluoro-benzyl)oxy)carbonyl)(methyl)amino)methyl)-1-methyl-1H-pyrazol-4-yl)pyridin-3-yl)oxy)cyclohexane-1-carboxylic acid] |
| 0.016 | CCCCCOC(=O)NCc1c(-c2ccc(O[C@H]3CCC[C@H](C(=O)O)C3)cn2)cnn1C [Example 12, (1S,3S)-3-((6-(1-methyl-5-((((pentyl-oxy)carbonyl)amino)methyl)-1H-pyrazol-4-yl)pyridin-3-yl)oxy)cyclohexane-1-carboxylic acid] |
| 0.834 | CCCCCCOC(=O)NCc1c(-c2ccc(O[C@H]3CCC[C@H](C(=O)O)C3)cn2)cnn1C [Example 13, (1S,3S)-3-((6-(5-((((hexyloxy)carbonyl)amino)methyl)-1-methyl-1H-pyrazol-4-yl)pyridin-3-yl)oxy)cyclohexane-1-carboxylic acid] |
| 0.207 | Cn1ncc(-c2ccc(O[C@H]3CCC[C@H](C(=O)O)C3)cn2)c1CNC(=O)OCC(C)(C)C [Example 14, (1S,3S)-3-((6-(1-methyl-5-((((neo-pentyloxy)carbonyl)amino)methyl)-1H-pyrazol-4-yl)pyridin-3-yl)oxy)cyclohexane-carboxylic acid] |
| 0.002 | Cc1cccc(COC(=O)NCc2c(-c3ccc(O[C@H]4CCC[C@H](C(=O)O)C4)c(C)n3)cnn2C)c1 [Example 15, (1S,3S)-3-((2-methyl-6-(1-methyl-5-(((((3-methylbenzyl)oxy)carbonyl)amino)methyl)-1H-pyrazol-4-yl)pyridin-3-yl)oxy)cyclohexane-1-carboxylic acid] |
| 0.023 | C[C@@H](OC(=O)NCc1c(-c2ccc(O[C@H]3CCC[C@H](C(=O)O)C3)cn2)cnn1C)c1ccccc1 [Example 16, (1S,3S)-3-((6-(1-methyl-5-(((((R)-1-phenylethoxy)carbonyl)amino)methyl)-1H-pyrazol-4-yl)pyridin-3-yl)oxy)cyclohexane-1-carboxylic acid] |
| 0.004 | CCCCCOC(=O)NCc1c(-c2ccc(O[C@H]3CCC[C@H](C(=O)O)C3)c(C)n2)cnn1C [Example 19, (1S,3S)-3-((2-methyl-6-(1-methyl-5-((((pentyloxy)carbonyl)amino)methyl)-1H-pyrazol-4-yl)pyridin-3-yl)oxy)cyclohexane-1-carboxylic acid] |
| 0.275 | CCCOC(=O)NCc1c(-c2ccc(O[C@H]3CCC[C@H](C(=O)O)C3)c(C)n2)cnn1C [Example 20, (1S,3S)-3-((2-methyl-6-(1-methyl-5-(((propoxycarbonyl)amino)methyl)-1H-pyrazol-4-yl)pyridin-3-yl)oxy)cyclohexane-1-carboxylic acid] |
| 0.182 | Cc1cccc(COC(=O)NCc2c(-c3ccc(O[C@H]4CCC[C@H](C(=O)O)C4)cn3)cnn2C)c1 [Example 21, (1S,3S)-3-((6-(1-methyl-5-(((((3-methylbenzyl)oxy)carbonyl)amino)methyl)-1H-pyrazol-4-yl)pyridin-3-yl)oxy)cyclohexane-1-carboxylic acid] |
| 0.355 | Cn1ncc(-c2ccc(O[C@H]3CCC[C@H](C(=O)O)C3)cn2)c1CNC(=O)OCCc1ccccc1 [Example 22, (1S,3S)-3-((6-(1-methyl-5-(((phen-ethoxycarbonyl)amino)methyl)-1H-pyrazol-4-yl)pyridin-3-yl)oxy)cyclohexane-1-carboxylic acid] |
| 0.204 | CN(Cc1c(-c2ccc(O[C@H]3CCC[C@H](C(=O)O)C3)cn2)cnn1C)C(=O)OCc1ccccc1 [Example 24, (1S,3S)-3-((6-(5-((((benzyloxy)carbonyl)(methyl)amino)methyl)-1-methyl-1H-pyrazol-4-yl)pyridin-3-yl)oxy)cyclohexane-1-carboxylic acid] |
| 0.02 | Cn1ncc(-c2ccc(O[C@H]3CCC[C@H](C(=O)O)C3)cn2)c1CNC(=O)OCc1ccccc1 [Example 25, (1S,3S)-3-((6-(5-((((benzyloxy)carbonyl)amino)methyl)-1-methyl-1H-pyrazol-4-yl)pyridin-3-yl)oxy)cyclohexane-1-carboxylic acid] |
| 0.014 | CCCCCCOC(=O)NCc1c(-c2ccc(O[C@H]3CCC[C@H](C(=O)O)C3)c(C)n2)cnn1C [Example 26] |
| 0.022 | Cc1nc(-c2cnn(C)c2CNC(=O)OCC(C)(C)C)ccc1O[C@H]1CCC[C@H](C(=O)O)C1 [Example 27] |
| 0.029 | Cc1nc(-c2cnn(C)c2CNC(=O)OCc2ccccc2)cnc1O[C@H]1CCC[C@H](C(=O)O)C1 [Example 31, (1S,3S)-3-((5-(5-((((benzyloxy)carbonyl)amino)methyl)-1-methyl-1H-pyrazol-4-yl)-3-methylpyrazin-2-yl)oxy)cyclohexane-1-carboxylic acid] |
| 0.211 | Cc1nc(-c2cnn(C)c2CN(C)C(=O)OCc2ccccc2)ccc1O[C@H]1CCC[C@H](C(=O)O)C1 [Example 32, (1S,3S)-3-((6-(5-((((benzyloxy)carbonyl)(methyl)amino)methyl)-1-methyl-1H-pyrazol-4-yl)-2-methyl-pyridin-3-yl)oxy)cyclohexane-1-carboxylic acid] |

| SMILES | IC50 [µM] |
| --- | --- |
| CCCCOC(=O)NCc1c(-c2ccc(O[C@H]3CCC[C@H](C(=O)O)C3)c(C)n2)cnn1C [Example 1, (1S,3S)-3-((6-(5-(((Butoxycarbonyl)amino)methyl)-1-methyl-1H-pyrazol-4-yl)-2-methylpyridin-3-yl)oxy)cyclohexanecarboxylic Acid] | 0.028 |
| CCCCOC(=O)N(C)Cc1c(-c2ccc(O[C@H]3CCC[C@H](C(=O)O)C3)c(C)n2)cnn1C [Example 2, (1S,3S)-3-((6-(5-(((Butoxycarbonyl)(methyl)amino)methyl)-1-methyl-1H-pyrazol-4-yl)-2-methylpyridin-3-yl)oxy)cyclohexanecarboxylic Acid] | 0.049 |
| CC(C)COC(=O)NCc1c(-c2ccc(O[C@H]3CCC[C@H](C(=O)O)C3)cn2)cnn1C [Example 17, (1S,3S)-3-((6-(5-(((isobutoxy-carbonyl)amino)methyl)-1-methyl-1H-pyrazol-4-yl)pyridin-3-yl)oxy)cyclohexane-1-carboxylic acid] | 1.64 |
| CCCCOC(=O)NCc1c(-c2ccc(O[C@H]3CCC[C@H](C(=O)O)C3)cn2)cnn1C [Example 18, (1S,3S)-3-((6-(5-(((butoxycarbonyl)amino)methyl)-1-methyl-1H-pyrazol-4-yl)pyridin-3-yl)oxy)cyclohexane-1-carboxylic acid] | 0.325 |
| CCCCOC(=O)N(C)Cc1c(-c2ccc(O[C@H]3CCC[C@H](C(=O)O)C3)cn2)cnn1C [Example 23, (1S,3S)-3-((6-(5-(((butoxycarbonyl)(methyl)amino)methyl)-1-methyl-1H-pyrazol-4-yl)pyridin-3-yl)oxy)cyclohexane-1-carboxylic acid] | 0.243 |
| Cc1nc(-c2cnn(C)c2CNC(=O)OCC(C)C)ccc1O[C@H]1CCC[C@H](C(=O)O)C1 [Example 28, (1S,3S)-3-((6-(5-(((isobutoxy-carbonyl)amino)methyl)-1-methyl-1H-pyrazol-4-yl)-2-methylpyridin-3-yl)oxy)cyclohexane-1-carboxylic acid] | 0.029 |
| Cc1nc(-c2cnn(C)c2CNC(=O)OCC(C)C)cnc1O[C@H]1CCC[C@H](C(=O)O)C1 [Example 29, (1S,3S)-3-((5-(5-(((isobutoxy-carbonyl)amino)methyl)-1-methyl-1H-pyrazol-4-yl)-3-methylpyrazin-2-yl)oxy)cyclohexane-1-carboxylic acid] | 1.2 |
| CCCCOC(=O)NCc1c(-c2cnc(O[C@H]3CCC[C@H](C(=O)O)C3)c(C)n2)cnn1C [Example 30, (1S,3S)-3-((5-(5-(((butoxycarbonyl)amino)methyl)-1-methyl-1H-pyrazol-4-yl)-3-methylpyrazin-2-yl)oxy)cyclohexane-1-carboxylic acid] | 0.283 |
